Data published in publication PMC9867436, “Drug Repurposing to Inhibit Histamine N-Methyl Transferase” (Molecules, 2023).
Read-outs that look alike come from different tables or passages of the source.

Molecular target: T1, Histamine N-Methyltransferase (HNMT) (Homo sapiens, UniProt P50135)
T1 construct: Recombinant Human Histamine N-Methyltransferase (rhHNMT, R&D Systems 7637-MT)
Experiment: fluorescence assay of histamine methylation by recombinant HNMT (ex […]/em […] nm)
Format: biochemical

T1 sequence (P50135 whole entry): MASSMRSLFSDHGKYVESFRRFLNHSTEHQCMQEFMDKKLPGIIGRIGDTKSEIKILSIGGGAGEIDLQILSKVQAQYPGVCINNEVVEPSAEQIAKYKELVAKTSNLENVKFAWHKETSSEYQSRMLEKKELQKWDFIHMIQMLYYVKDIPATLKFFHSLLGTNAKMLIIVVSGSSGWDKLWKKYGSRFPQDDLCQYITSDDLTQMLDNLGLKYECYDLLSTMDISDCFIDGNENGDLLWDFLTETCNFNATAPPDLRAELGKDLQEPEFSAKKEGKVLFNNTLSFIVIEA

IC50 (read-out: IC50) | SMILES | IC50
45 µM | N#Cc1ccc2[nH]cc(CCCCN3CCN(c4ccc5oc(C(N)=O)cc5c4)CC3)c2c1 [vilazodone] | 
0.0667 µM | Cc1nc(N)nc(N)c1-c1ccc(Cl)c(Cl)c1 [metoprine, reference compound] | 
 | CN1C[C@H](C(=O)N[C@]2(C)O[C@@]3(O)[C@@H]4CCCN4C(=O)[C@H](Cc4ccccc4)N3C2=O)C[C@@H]2c3cccc4[nH]cc(c34)C[C@H]21 [dihydroergotamine] | 72.9 µM
